Experimental findings from ChEMBL document CHEMBL1135845, “N-(arylacetyl)-biphenylalanines as potent VLA-4 antagonists” (Bioorg Med Chem Lett, 2002) are described below.

In data set [1] the target is T1, Integrin alpha-4/beta-7 (Homo sapiens, UniProt P13612+P26010).
T1 sequence (P13612 whole entry): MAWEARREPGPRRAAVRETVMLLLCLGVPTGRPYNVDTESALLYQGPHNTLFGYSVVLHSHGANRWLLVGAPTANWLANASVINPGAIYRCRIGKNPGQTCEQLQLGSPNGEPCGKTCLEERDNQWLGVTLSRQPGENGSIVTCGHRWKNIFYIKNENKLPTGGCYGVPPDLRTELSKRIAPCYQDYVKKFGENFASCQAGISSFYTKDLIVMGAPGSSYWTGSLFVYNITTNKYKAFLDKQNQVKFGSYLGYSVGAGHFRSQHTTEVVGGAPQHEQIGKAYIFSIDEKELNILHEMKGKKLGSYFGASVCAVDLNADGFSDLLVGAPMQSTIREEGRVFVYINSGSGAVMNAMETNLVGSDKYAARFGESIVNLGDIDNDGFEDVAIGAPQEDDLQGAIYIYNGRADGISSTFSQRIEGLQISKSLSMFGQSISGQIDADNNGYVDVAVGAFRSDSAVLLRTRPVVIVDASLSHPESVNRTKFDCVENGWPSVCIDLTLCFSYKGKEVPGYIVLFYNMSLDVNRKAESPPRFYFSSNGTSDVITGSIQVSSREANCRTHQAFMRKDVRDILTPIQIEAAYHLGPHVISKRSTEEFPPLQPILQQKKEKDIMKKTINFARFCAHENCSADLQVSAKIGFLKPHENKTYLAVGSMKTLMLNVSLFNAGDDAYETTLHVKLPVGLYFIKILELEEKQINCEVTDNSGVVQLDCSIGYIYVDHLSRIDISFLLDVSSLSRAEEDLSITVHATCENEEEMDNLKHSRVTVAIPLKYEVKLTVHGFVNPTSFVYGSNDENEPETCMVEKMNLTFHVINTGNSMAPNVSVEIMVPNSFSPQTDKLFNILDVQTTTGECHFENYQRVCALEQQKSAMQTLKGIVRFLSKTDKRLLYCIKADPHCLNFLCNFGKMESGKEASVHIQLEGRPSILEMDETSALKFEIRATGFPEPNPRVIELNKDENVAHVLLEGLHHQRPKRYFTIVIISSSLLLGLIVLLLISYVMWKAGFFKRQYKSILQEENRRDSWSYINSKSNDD
T1 sequence (P26010 whole entry): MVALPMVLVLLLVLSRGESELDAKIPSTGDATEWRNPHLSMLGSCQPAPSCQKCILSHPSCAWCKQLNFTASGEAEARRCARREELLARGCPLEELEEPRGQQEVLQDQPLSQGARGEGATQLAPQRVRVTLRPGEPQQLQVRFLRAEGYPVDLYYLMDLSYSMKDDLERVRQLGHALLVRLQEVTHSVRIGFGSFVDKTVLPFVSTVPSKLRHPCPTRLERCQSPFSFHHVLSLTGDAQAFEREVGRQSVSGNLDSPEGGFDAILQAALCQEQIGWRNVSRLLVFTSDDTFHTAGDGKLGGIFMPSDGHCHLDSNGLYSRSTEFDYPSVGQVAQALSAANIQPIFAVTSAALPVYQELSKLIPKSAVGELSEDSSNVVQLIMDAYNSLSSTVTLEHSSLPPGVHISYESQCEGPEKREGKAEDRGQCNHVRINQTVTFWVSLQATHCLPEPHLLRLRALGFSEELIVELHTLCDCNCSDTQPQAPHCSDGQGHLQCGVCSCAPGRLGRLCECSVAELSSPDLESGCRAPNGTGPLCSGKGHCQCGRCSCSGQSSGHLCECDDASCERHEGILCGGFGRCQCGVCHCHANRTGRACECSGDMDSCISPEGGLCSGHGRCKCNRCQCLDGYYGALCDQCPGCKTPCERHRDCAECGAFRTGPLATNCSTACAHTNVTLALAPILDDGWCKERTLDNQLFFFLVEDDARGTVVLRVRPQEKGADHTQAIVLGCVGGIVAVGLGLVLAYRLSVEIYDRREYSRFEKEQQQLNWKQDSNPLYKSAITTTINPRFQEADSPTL
Nature of the data set: Inhibition of alpha4-beta7 integrin binding to radiolabeled vascular cell adhesion molecule-1 (VCAM-1) Ig fusion protein in human Jurkat cells. Type of data set: cell-based.

A short description of data set [2]: Inhibition of VLA-4 binding to radiolabeled vascular cell adhesion molecule-1 (VCAM-1) Ig fusion protein in human Jurkat cells. Type of data set: cell-based.
Data set [3] is described as follows: Bioavailability in rat (Sprague-Dawley) (dose 1 mg/kg i.v. and 2 mg/kg p.o.). Particulars: in vivo, po. It counts as ADME, organism-based.
The nature of data set [4]: Plasma half-life was determined in Sprague-Dawley rats after 0-8 h administration of the compound. As to conditions: rat. It counts as ADME, organism-based.
A short description of data set [5]: Plasma clearance rate in Sprague-Dawley rats. As to conditions: rat, read-out: Clp. Type of data set: ADME, organism-based.

On to `COc1ccccc1-c1ccc(C[C@H](NC(=O)C2(c3ccncc3)CCCC2)C(=O)O)cc1`, for which the figures for the IC50 in data set [1] and in data set [2] were 49 nM and 0.7 nM, respectively. Also, in data set [3], the bioavailability (in general, the share of a dose that reaches the circulation, judged against a reference dose that is usually intravenous) was 17%. Also, the half-life – broadly, the time needed for the level to fall by half in the phase considered – in data set [4] was 2.5 h. Besides, the clearance in data set [5] was more than 100 mL/min/kg. `COc1ccccc1-c1ccc(C[C@H](NC(=O)Cc2ccccc2)C(=O)O)cc1`: the half-maximal inhibitory concentration (IC50) (usually the midpoint of a concentration-inhibition curve) in data set [2] was determined as 264 nM.

With `COc1ccccc1-c1ccc(C[C@H](NC(=O)C2(c3ccccc3)CCCCC2)C(=O)O)cc1`, the concentration for half-maximal inhibition (IC50) in data set [2] was 6.5 nM. The same measure, in the same setting: then `COc1ccccc1-c1ccc(C[C@H](NC(=O)Cc2ccncc2)C(=O)O)cc1`, with 12.2 nM; and `COc1ccccc1-c1ccc(C[C@H](NC(=O)Cc2ccccn2)C(=O)O)cc1`, with 15.8 nM.

On to `COc1ccccc1-c1ccc(C[C@H](NC(=O)C2(c3cncc4ccccc34)CCCC2)C(=O)O)cc1`, for which the IC50 stood at 120 nM in data set [1] and 9.8 nM in data set [2]. In data set [2], `COc1ccccc1-c1ccc(C[C@H](NC(=O)Cc2cccc(F)c2)C(=O)O)cc1` registered a 50% inhibitory concentration (IC50) of 246 nM. The compound `COc1ccccc1-c1ccc(C[C@H](NC(=O)Cc2ccc(F)cc2)C(=O)O)cc1` registered an IC50 in data set [2] of 129 nM. With `COc1ccccc1-c1ccc(C[C@H](NC(=O)C2(c3ccnnc3)CCCC2)C(=O)O)cc1`, the half-inhibitory concentration (IC50) in data set [1] is 33 nM; in data set [2] it was 0.5 nM. The compound `COc1ccccc1-c1ccc(C[C@H](NC(=O)Cc2ccccc2Cl)C(=O)O)cc1` yielded a half-inhibitory concentration (IC50) in data set [2] of 36.8 nM. Take `COc1ccccc1-c1ccc(C[C@H](NC(=O)C2(c3cccnc3)CCN(C(C)=O)CC2)C(=O)O)cc1`: the IC50 stood at 30 nM in data set [1] and 0.7 nM in data set [2]. `COc1ccccc1-c1ccc(C[C@H](NC(=O)Cc2ccc(-c3ccccc3)cc2)C(=O)O)cc1` had a 50% inhibitory concentration (IC50) in data set [2] of 607 nM.

In data set [2], `COc1ccccc1-c1ccc(C[C@H](NC(=O)Cc2ccc(Cl)cc2Cl)C(=O)O)cc1` registered an IC50 of 16.6 nM. With `COc1ccccc1-c1ccc(C[C@H](NC(=O)C2(c3cnccc3C)CCCC2)C(=O)O)cc1`, the values for the IC50 in data set [1] and in data set [2] were 22 nM and 1.2 nM, respectively. In addition, the bioavailability in data set [3] is 1%. In data set [4], this compound had a half-life of 0.2 h. The clearance in data set [5] was more than 100 mL/min/kg.

In turn, `COc1ccccc1-c1ccc(C[C@H](NC(=O)Cn2cnnn2)C(=O)O)cc1` had a half-maximal inhibitory concentration (IC50) in data set [2] of 14.4 nM.

Turning to `COc1ccccc1-c1ccc(C[C@H](NC(=O)C2(c3cncc(Br)c3)CCCC2)C(=O)O)cc1`, the IC50 in data set [1] was 165 nM; in data set [2], 1.6 nM. With `COc1ccccc1-c1ccc(C[C@H](NC(=O)C2(c3ccc(C)nc3)CCCC2)C(=O)O)cc1`, the IC50 in data set [1] came out at 36.3 nM; in data set [2], 1.3 nM. In data set [3], this compound displayed a bioavailability of 12%. Besides, the half-life in data set [4] is 0.3 h. In addition, the clearance in data set [5] is more than 100 mL/min/kg. As to `COc1cc(C2(C(=O)N[C@@H](Cc3ccc(-c4ccccc4OC)cc3)C(=O)O)CCCC2)ccn1`, the half-inhibitory concentration (IC50) was determined as 15 nM in data set [1] and 0.8 nM in data set [2].

For the compound `COc1ccccc1-c1ccc(C[C@H](NC(=O)C2(c3ccccc3)CCCC2)C(=O)O)cc1`, the IC50 amounted to 110 nM in data set [1] and 3.2 nM in data set [2]. The compound also registered a bioavailability in data set [3] of 55%. The compound also had a half-life in data set [4] of 1 h. Also, the clearance in data set [5] was 21.5 mL/min/kg.

Compound `COc1ccccc1-c1ccc(C[C@H](NC(=O)Cc2ccccc2[N+](=O)[O-])C(=O)O)cc1` had a concentration for half-maximal inhibition (IC50) in data set [2] of 4.8 nM.

Consider `COc1ccccc1-c1ccc(C[C@H](NC(=O)C2(c3cccnc3)CCNCC2)C(=O)O)cc1`, for which the IC50 is 83 nM in data set [1] and 5.1 nM in data set [2].

For `COc1ccccc1-c1ccc(C[C@H](NC(=O)C2(c3cccnc3)CC=CC2)C(=O)O)cc1`, the IC50 in data set [1] worked out at 16.7 nM; in data set [2] it was 0.9 nM. With `COc1ccccc1-c1ccc(C[C@H](NC(=O)Cc2cccc([N+](=O)[O-])c2)C(=O)O)cc1`, the IC50 in data set [2] worked out at 64.9 nM. Still for that read-out and setting: next, `COc1ccccc1-c1ccc(C[C@H](NC(C)=O)C(=O)O)cc1`: 262 nM. In turn, `COc1ccccc1-c1ccc(C[C@H](NC(=O)C(C)(C)c2ccccc2)C(=O)O)cc1` registered a 50% inhibitory concentration (IC50) in data set [2] of 14.1 nM. This compound returned a bioavailability in data set [3] of 94%. This compound also gave a half-life in data set [4] of 2 h. For the same compound, in data set [5], the clearance stood at 7.5 mL/min/kg.

As to `COc1ccccc1-c1ccc(C[C@H](NC(=O)C2(c3cccnc3)CCC(C)C2)C(=O)O)cc1` (mixture of isomers), the half-inhibitory concentration (IC50) in data set [1] was 94 nM; in data set [2] it was 0.7 nM.

Take `COc1ccccc1-c1ccc(C[C@H](NC(=O)Cn2cnc(Cl)c2Cl)C(=O)O)cc1`: the IC50 in data set [2] came out at 6.15 nM. Same read-out and setting: then `COc1ccccc1-c1ccc(C[C@H](NC(=O)C(OC)c2ccccc2)C(=O)O)cc1` (some centres undefined), with 7.1 nM. With `COc1ccccc1-c1ccc(C[C@H](NC(=O)C2(c3ccc[n+]([O-])c3)CCCC2)C(=O)O)cc1`, the half-inhibitory concentration (IC50) stood at 180 nM in data set [1] and 3.2 nM in data set [2]. In data set [2], `COc1ccccc1-c1ccc(C[C@H](NC(=O)Cc2ccc([N+](=O)[O-])cc2)C(=O)O)cc1` returned a half-inhibitory concentration (IC50) of 44.9 nM. With `COc1ccccc1-c1ccc(C[C@H](NC(=O)C2(c3ccc(=O)n(C)c3)CCCC2)C(=O)O)cc1`, the IC50 in data set [1] came out at 18 nM; in data set [2] it was 2.1 nM. On the same counts, the results for `COc1ccccc1-c1ccc(C[C@H](NC(=O)C2(c3cnc4ccccc4c3)CCCC2)C(=O)O)cc1` are 98 nM and 3.9 nM.

In data set [2], `COc1ccccc1-c1ccc(C[C@H](NC(=O)Cc2cccc(Cl)c2)C(=O)O)cc1` showed a half-inhibitory concentration (IC50) of 328 nM. As for `COc1ccccc1-c1ccc(C[C@H](NC(=O)C2(c3cccnc3)CCN(C)CC2)C(=O)O)cc1`, the half-inhibitory concentration (IC50) turned out to be 51 nM in data set [1] and 1 nM in data set [2]. Take `COc1ccccc1-c1ccc(C[C@H](NC(=O)Cc2c(Cl)cccc2Cl)C(=O)O)cc1`: the 50% inhibitory concentration (IC50) in data set [2] came to 8 nM.

For the compound `COc1ccccc1-c1ccc(C[C@H](NC(=O)Cc2cccc3ccccc23)C(=O)O)cc1`, the 50% inhibitory concentration (IC50) in data set [2] came out at 145 nM. Take `COc1ccccc1-c1ccc(C[C@H](NC(=O)Cc2ccc(Cl)cc2)C(=O)O)cc1`: the IC50 in data set [2] is 315 nM. The same measure, in the same setting: then `COc1ccccc1-c1ccc(C[C@H](NC(=O)Cc2cccc(C)c2)C(=O)O)cc1`, with 30.9 nM; and `COc1ccccc1-c1ccc(C[C@H](NC(=O)C2(c3ccccc3)CC2)C(=O)O)cc1`, with 90.7 nM. Take `COc1ccccc1-c1ccc(C[C@H](NC(=O)C2(c3cccnc3)CCOCC2)C(=O)O)cc1`: the half-maximal inhibitory concentration (IC50) came to 94 nM in data set [1] and 0.5 nM in data set [2]. Moreover, in data set [3], the bioavailability was less than 1%. Further, the clearance in data set [5] was more than 100 mL/min/kg. On to `COc1ccccc1-c1ccc(C[C@H](NC(=O)Cc2ccc3ccccc3c2)C(=O)O)cc1`, for which the half-maximal inhibitory concentration (IC50) in data set [2] amounted to 801 nM. The same measure, in the same setting: next, `COc1ccccc1-c1ccc(C[C@H](NC(=O)Cc2cccnc2)C(=O)O)cc1`: 12.9 nM. As to `COc1ccccc1-c1ccc(C[C@H](NC(=O)C2(c3ccc(O)nc3)CCCC2)C(=O)O)cc1`, the half-inhibitory concentration (IC50) was 26 nM in data set [1] and 1.4 nM in data set [2]. For the same compound, in data set [3], the bioavailability worked out at 1%. Also, in data set [5], the clearance is more than 100 mL/min/kg. Turning to `COc1ccccc1-c1ccc(C[C@H](NC(=O)C2(c3ccccn3)CCCC2)C(=O)O)cc1`, the figures for the IC50 in data set [1] and in data set [2] were 215 nM and 3 nM, respectively. Besides, the bioavailability in data set [3] is less than 1%. Further, the clearance in data set [5] is more than 100 mL/min/kg.
